Target: T1, interaction between VCAM-1 and VLA-4 (Homo sapiens, UniProt P05556+P13612)
T1 construct: supplied in their natural form as surface molecules on human U937 cells; host or cells: U937 (human)
Experiment: U937/VCAM-1 cell adhesion test (adhesion of U937 cells to hVCAM-1 (1-3)-IgG)
Type: cell-based
Details: read-out: IC50 (50% inhibition of adhesion)
Excerpt: The test method used for the activity of the compounds of the formula I on the interaction between VCAM-1 and VLA-4 is an assay which is specific for this interaction. The cellular binding components, i.e., the VLA4 integrins, are supplied in their natural form as surface molecules on human U937 cells (ATCC CRL 1593), which belong to the leucocytes group. The specific binding components used are genetically engineered recombinant soluble fusion proteins, consisting of the extracytoplasmatic domain of human VCAM-1 and the constant region of a human immunoglobulin of the subclass IgG1.
Assay for the measurement of the adhesion of U937 cells (ATCC CRL 1593) to hVCAM-1 (1-3)-IgG
1. Preparation of human VCAM-1(1-3)-IgG and human CD4-IgG
A genetic construct for the expression of the extracellular domain of human VCAM-1, associated with the genetic sequence of the heavy chain of human immunoglobulin IgG1 (hinge, CH2 and CH3 regions), from Dr. Brian Seed, Massachusetts General Hospital, Boston, USA (cf. Damle and Aruffo, Proc. NatI. Acad. Sci. USA 1991, 88, 6403-6407) was employed. The soluble fusion protein hVCAM-1 (1-3)-IgG contained the three amino-terminal extracellular immunoglobulin-like domains of human VCAM-1 (Damle and Aruffo, Proc. Natl. Acad. Sci. USA 1991, 88, 6403). CD4-IgG (Zeftimeissl et al., DNA and Cell Biology 1990, 9, 347) served as a fusion protein for negative controls. The recombinant proteins were expressed as soluble proteins after DEAE/dextran-mediated DNA transfection in COS cells (ATCC CRL1651) according to standard procedures (Ausubel et al., Current Protocols in Molecular Biology, John Wiley & Sons, Inc., 1994).
2. Assay for the measurement of the adhesion of U937 cells to hVCAM-1 (1-3)-IgG
2.1 96-well microtiter test plates (Nunc Maxisorb) were incubated at room temperature for 1 hour with 100 μl/well of a goat-anti-human-IgG antibody solution (10 μg/ml in 50 mM tris, pH 9.5). After removal of the antibody solution, washing was carried out once with PBS.
2.2 150 μl/well of a blocking buffer (1% BSA in PBS) was incubated on the plates at room temperature for 0.5 hour. After removal of the blocking buffer, washing was carried out once with PBS.
2.3 100 μl per well of a cell culture supernatant of transfected COS cells was incubated on the plates at room temperature for 1.5 hours. The COS cells were transfected with a plasmid which codes for the three N-terminal immunoglobulin-like domains of VCAM-1, coupled to the Fc part of human IgG1 (hVCAM-1(1--3)-IgG). The content of hVCAM-1 (1-3)-IgG was about 0.5-1 μg/ml. After removal of the culture supernatant washing was carried out once with PBS. […]

T1 sequence (P13612 34-1032): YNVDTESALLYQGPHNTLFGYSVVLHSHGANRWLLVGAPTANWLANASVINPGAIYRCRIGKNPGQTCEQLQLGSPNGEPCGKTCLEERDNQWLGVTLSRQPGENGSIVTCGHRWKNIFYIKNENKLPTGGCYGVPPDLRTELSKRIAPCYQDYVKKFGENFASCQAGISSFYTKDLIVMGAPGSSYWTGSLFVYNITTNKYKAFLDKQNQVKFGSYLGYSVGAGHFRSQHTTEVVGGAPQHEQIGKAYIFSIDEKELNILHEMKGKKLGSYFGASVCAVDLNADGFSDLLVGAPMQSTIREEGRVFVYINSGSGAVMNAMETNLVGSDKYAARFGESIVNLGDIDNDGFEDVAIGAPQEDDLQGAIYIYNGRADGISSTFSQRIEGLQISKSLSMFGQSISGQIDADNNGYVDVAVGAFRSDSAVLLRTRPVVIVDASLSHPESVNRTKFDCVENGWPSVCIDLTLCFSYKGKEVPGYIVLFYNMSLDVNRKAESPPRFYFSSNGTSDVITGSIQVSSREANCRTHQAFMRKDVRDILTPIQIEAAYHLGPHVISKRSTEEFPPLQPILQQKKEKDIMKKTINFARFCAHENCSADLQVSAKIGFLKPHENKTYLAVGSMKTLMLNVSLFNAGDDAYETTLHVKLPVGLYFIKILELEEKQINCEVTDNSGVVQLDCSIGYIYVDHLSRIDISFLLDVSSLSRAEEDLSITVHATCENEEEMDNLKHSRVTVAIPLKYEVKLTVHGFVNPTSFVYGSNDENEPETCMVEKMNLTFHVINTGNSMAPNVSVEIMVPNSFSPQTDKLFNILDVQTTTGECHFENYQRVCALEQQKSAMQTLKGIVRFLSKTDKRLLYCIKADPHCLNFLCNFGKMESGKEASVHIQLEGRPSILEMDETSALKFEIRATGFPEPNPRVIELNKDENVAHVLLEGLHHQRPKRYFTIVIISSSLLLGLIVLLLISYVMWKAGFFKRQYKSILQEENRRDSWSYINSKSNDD
T1 sequence (P05556 21-798): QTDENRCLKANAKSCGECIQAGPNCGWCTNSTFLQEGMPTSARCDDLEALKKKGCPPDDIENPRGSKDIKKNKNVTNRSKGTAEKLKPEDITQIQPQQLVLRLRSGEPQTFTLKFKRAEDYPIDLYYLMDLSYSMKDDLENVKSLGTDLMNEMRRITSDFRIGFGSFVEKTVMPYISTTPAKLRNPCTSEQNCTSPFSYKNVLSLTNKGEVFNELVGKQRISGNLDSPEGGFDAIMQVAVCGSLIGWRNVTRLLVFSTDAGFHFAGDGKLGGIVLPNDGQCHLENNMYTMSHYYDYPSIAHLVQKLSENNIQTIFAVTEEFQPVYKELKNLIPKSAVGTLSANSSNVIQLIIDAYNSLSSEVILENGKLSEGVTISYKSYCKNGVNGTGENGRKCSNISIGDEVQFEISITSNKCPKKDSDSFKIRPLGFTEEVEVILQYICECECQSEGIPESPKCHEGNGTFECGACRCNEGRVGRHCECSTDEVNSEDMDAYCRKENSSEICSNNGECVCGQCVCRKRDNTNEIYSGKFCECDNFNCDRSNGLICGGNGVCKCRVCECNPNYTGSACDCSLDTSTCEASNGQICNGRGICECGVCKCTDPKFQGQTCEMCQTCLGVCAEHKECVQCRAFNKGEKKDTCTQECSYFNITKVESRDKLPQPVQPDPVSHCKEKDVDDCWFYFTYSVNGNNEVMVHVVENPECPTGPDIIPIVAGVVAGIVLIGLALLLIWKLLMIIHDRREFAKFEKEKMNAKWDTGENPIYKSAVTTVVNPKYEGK

Row | IC50 | SMILES
1 | 1.25 µM | CC1(c2ccc(C(=N)N)cc2)C(=O)N(CC(=O)NC[C@H](NC(=O)OCC23CC4CC(CC(C4)C2)C3)C(=O)O)C(=O)N1Cc1ccccc1 (stereo partly drawn) [Example 1, (S)-3-(((R,S)-4-(4-(Amino-imino-methyl)phenyl)-3-benzyl-4-methyl-2,5-dioxoimidazolidin-1-yl)acetylamino)-2-(1-adamantylmethyloxy-carbonylamino)propionic acid]
2 | 0.73 µM | CC(C)[C@H](NC(=O)[C@H](CC(=O)O)N(C)C(=O)CN1C(=O)N(Cc2ccc3ccccc3c2)C(C)(c2ccc(C(=N)N)cc2)C1=O)C(=O)N1CCOCC1 (stereo partly drawn) [Example 5, ((R,S)-4-(4-(Amino-imino-methyl)phenyl)-3-(2-naphthylmethyl)-4-methyl-2,5-dioxoimidazolidin-1-yl)acetyl-L-(N-methylaspartyl)-L-valine morpholide]
3 | 11.5 µM | CC1(c2ccc(C(=N)N)cc2)C(=O)N(CC(=O)NC[C@H](NC(=O)NCc2ccccc2)C(=O)O)C(=O)N1Cc1ccccc1 (stereo partly drawn) [Example 3, (S)-3-(((R,S)-4-(4-(Amino-imino-methyl)phenyl)-3-benzyl-4-methyl-2,5-dioxoimidazolidin-1-yl)acetylamino)-2-benzylaminocarbonylaminopropionic acid]
4 | 10.5 µM | CC1(c2ccc(C(=N)N)cc2)C(=O)N(CC(=O)NC[C@H](NC(=S)NCc2ccccc2)C(=O)O)C(=O)N1Cc1ccccc1 (stereo partly drawn) [Example 4, (S)-(((R,S)-4-(4-(Amino-imino-methyl)phenyl)-3-benzyl-4-methyl-2,5-dioxoimidazolidin-1-yl)acetylamino)-2-benzylaminothiocarbonylamino-propionic acid]
